In patent publication US10364247B2, “Preparation and use of novel protein kinase inhibitors” (Ruijin Hospital Affiliated to Shanghai Jiao Tong University …, priority 2015, dated 2019):

Assays:
Format in all cases: cell-based, murine
[1] = molecular target: T1, BaF3-BCR/ABL (Homo sapiens, UniProt P00519); test: Antiproliferative activity, kinase-dependent Ba/F3 cells (MTT/MTS); conditions: 48 hours, cell viability, read-out: BCR/ABL IC50
T1 construct: fused on or other part: P11274 (Breakpoint cluster region protein)
Method: (§1) Following up on the kinome data, the ability of compounds disclosed in the present invention to inhibit proliferation of cells that are dependent on selected protein kinases was tested. […] In addition, compounds were assayed to measure their capacity to inhibit TIE1, LYN, EML4-ALK, INSR and HCK kinases.
(§2) The murine cell line used is the BaF/3 cell line transformed with BCR/ABL cDNA (BaF/3-p210) or BCR/ABL-T315I mutant (Ba/F3-p210-T315I). These cells are maintained in RPMI/10% fetal calf serum (RPMI/FCS) supplemented with penicillin 50 μg/mL, streptomycin 50 μg/mL and L-glutamine […]. Untransformed BaF/3 cells (Wt-BaF/3) are similarly maintained with the addition of 15% of WEHI conditioned medium as a source of IL3.
(§3) Cells were seeded at a density of 20,000 cells/well into 96-well plates.
(§4) The background control wells to which media with no cells added and the vehicle control wells were included on each plate in triplicate. Cell viability was determined using MTT (Sigma, St. Louis, Mo., USA) and MTS (Promega, Madison, Wis., USA), according to the manufacturer's instructions. Results were analyzed using GraphPad Prism 5.0 (GraphPad Software, San Diego, Calif.) and IC50 values were calculated from cell viability dose-response curves and defined as the concentration of compound needed to reduce cell viability to 50% of a vehicle control (DMSO) (Table 3).

[2] = molecular target: T2, BaF3-BCR/ABL-T315I (Homo sapiens, UniProt P00519, T315I, cells depend on it); test: as above; conditions: 48 hours, cell viability, read-out: BCR/ABL T315I IC50
T2 construct: fused on or other part: P11274 (Breakpoint cluster region protein)
Method: as §1, §2, §3, §4

[3] = molecular target: T3, BaF3-EML4-ALK (Homo sapiens, UniProt Q9UM73); test: as above; conditions: 48 hours, cell viability, read-out: EML4-ALK IC50
T3 construct: fused on or other part: Q9HC35 (Echinoderm microtubule-associated protein-like 4)
Method: as §1, §2, §3, §4
(§5) Cell proliferation assays of compounds of the invention against TIE1, LYN, EML4-ALK, INSR and Hck were conducted using identical methods as described above for BCR/ABL, except that BaF3-TEL-TIE1, BaF3-TEL-LYN, BaF3-EML4-ALK, BaF3-TEL-INSR, and BaF3-TEL-HCK are used instead of BaF3-BCR/ABL (Table 3 and 4).

[4] = molecular target: T4, BaF3-TEL-HCK (Homo sapiens, UniProt P08631); test: as above; conditions: 48 hours, cell viability, read-out: Tel-HCK IC50
T4 construct: fused on or other part: P41212 (Transcription factor ETV6)
Method: as §1, §2, §3, §4, §5

[5] = molecular target: T5, BaF3-TEL-INSR (Homo sapiens, UniProt P06213); test: as above; conditions: 48 hours, cell viability, read-out: Tel-INSR IC50
T5 construct: fused on or other part: P41212 (Transcription factor ETV6)
Method: as §1, §2, §3, §4, §5

[6] = molecular target: T6, BaF3-TEL-LYN (Homo sapiens, UniProt P07948); test: as above; conditions: 48 hours, cell viability, read-out: tel-LYN IC50
T6 construct: fused on or other part: P41212 (Transcription factor ETV6)
Method: as §1, §2, §3, §4, §5

[7] = molecular target: T7, BaF3-TEL-TIE1 (Homo sapiens, UniProt P35590); test: as above; conditions: 48 hours, cell viability, read-out: tel-TIE1 IC50
T7 construct: fused on or other part: P41212 (Transcription factor ETV6)
Method: as §1, §2, §3, §4, §5

[8] = test system: BaF3-KRASD12; test: Oncogenic RAS dependent cell proliferation (CellTiter Glo); conditions: Mus musculus, BaF3-KRASD12 cells, 48 hours, read-out: KRas-BaF3 IC50
Method: (§6) The BaF/3 cell line transformed with oncogenic NRAS or KRAS (BaF/3-NRASD12 or BaF/3-KRASD12) and the parental BaF/3 cells were used to measure the abilities of compounds of the invention to suppress RAS transformation (Table 5). Cells were seeded at a density of 5000 cells/well into 96-well plates. […] The background control wells to which media with no cells added and the vehicle control wells were included on each plate in triplicate. Cell viability was determined using CellTiter Glo Assay (Promega) according to manufacture's instruction with a minor modification of diluting 1 part CellTiter Glo reagent to 4 parts phosphate buffered saline (PBS) before use. The luminescence value was read out by an Envision (PerkinElmer).

[9] = test system: BaF3-NRASD12; test: as above; conditions: Mus musculus, BaF3-NRASD12 cells, 48 hours, read-out: NRas-BaF3 IC50
Method: as §6

[10] = test system: Wt-BaF3; test: Parental Ba/F3 cell proliferation (CellTiter Glo); conditions: Mus musculus, parental BaF/3 cells, 48 hours
Method: as §2, §6

T3 sequence (Q9UM73 whole entry, change not shown, the tested form may be a part): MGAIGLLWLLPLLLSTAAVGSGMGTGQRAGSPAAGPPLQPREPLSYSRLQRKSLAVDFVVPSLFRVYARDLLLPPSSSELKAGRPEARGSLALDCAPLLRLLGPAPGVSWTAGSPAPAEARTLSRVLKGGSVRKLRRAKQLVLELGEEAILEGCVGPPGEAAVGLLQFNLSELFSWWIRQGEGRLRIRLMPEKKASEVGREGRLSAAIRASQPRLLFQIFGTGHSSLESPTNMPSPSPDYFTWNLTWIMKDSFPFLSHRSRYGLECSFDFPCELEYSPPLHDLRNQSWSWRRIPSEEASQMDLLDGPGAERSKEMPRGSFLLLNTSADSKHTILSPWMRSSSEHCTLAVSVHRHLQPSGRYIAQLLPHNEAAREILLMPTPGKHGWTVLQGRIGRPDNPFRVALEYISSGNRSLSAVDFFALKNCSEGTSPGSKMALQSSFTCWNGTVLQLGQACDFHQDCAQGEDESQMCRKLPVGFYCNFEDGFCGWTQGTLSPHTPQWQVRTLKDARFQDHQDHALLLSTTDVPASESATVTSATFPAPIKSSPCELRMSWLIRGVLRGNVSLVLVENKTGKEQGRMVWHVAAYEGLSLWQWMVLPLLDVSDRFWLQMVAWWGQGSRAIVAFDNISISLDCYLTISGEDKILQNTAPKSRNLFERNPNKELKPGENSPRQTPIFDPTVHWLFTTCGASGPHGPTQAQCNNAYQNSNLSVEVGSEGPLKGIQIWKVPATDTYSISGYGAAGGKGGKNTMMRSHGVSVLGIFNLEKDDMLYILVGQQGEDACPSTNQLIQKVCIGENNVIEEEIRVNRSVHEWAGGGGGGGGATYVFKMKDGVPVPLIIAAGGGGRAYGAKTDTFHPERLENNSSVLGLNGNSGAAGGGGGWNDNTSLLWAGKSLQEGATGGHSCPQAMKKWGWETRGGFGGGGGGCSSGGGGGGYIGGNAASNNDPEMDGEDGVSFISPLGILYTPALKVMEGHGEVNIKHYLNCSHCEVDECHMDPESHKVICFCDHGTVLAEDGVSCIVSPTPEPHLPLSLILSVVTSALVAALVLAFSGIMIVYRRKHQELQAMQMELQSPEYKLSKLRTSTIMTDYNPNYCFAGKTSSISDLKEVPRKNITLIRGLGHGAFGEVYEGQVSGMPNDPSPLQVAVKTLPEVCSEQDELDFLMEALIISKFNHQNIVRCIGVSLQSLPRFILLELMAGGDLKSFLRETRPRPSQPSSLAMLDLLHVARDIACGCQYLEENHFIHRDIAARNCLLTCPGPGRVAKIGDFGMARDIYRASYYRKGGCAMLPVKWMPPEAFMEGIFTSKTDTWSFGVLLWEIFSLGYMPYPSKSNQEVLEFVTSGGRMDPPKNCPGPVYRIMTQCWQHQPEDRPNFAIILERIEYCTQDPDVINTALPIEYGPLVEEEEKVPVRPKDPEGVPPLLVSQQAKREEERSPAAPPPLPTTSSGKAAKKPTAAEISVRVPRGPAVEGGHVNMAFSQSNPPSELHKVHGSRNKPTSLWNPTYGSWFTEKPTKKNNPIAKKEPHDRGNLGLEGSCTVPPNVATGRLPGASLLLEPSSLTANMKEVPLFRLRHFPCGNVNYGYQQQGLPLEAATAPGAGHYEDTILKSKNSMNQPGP
T7 sequence (P35590 whole entry, change not shown, the tested form may be a part): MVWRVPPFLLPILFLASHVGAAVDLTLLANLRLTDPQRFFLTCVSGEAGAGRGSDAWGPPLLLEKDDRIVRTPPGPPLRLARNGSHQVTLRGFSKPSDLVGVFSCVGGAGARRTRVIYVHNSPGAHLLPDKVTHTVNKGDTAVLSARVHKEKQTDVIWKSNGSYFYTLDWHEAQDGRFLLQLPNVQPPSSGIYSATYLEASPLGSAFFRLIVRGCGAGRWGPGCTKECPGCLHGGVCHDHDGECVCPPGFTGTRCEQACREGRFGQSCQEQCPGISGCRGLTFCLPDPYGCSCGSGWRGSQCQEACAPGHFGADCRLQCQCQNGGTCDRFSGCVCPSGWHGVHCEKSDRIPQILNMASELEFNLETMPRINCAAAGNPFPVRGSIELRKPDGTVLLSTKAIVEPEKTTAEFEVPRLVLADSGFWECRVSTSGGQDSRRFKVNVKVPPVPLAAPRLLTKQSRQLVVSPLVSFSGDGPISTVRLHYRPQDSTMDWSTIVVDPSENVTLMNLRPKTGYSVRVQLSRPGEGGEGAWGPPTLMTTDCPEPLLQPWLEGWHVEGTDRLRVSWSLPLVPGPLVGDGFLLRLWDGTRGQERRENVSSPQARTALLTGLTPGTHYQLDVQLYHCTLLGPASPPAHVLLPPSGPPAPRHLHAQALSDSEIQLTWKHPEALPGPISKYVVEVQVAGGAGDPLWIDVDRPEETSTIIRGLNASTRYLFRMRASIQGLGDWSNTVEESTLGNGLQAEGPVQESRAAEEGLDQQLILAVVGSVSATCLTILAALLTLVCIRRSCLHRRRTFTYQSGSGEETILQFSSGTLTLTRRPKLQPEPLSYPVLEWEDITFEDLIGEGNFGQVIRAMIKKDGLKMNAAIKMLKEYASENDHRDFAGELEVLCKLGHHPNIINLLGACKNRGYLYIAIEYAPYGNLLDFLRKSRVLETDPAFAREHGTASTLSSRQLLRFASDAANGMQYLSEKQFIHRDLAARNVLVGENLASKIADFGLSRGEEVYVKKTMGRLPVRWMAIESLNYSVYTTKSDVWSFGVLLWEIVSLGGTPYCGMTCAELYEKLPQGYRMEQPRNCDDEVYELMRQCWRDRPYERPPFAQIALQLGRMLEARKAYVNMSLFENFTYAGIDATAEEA
T6 sequence (P07948 whole entry, change not shown, the tested form may be a part): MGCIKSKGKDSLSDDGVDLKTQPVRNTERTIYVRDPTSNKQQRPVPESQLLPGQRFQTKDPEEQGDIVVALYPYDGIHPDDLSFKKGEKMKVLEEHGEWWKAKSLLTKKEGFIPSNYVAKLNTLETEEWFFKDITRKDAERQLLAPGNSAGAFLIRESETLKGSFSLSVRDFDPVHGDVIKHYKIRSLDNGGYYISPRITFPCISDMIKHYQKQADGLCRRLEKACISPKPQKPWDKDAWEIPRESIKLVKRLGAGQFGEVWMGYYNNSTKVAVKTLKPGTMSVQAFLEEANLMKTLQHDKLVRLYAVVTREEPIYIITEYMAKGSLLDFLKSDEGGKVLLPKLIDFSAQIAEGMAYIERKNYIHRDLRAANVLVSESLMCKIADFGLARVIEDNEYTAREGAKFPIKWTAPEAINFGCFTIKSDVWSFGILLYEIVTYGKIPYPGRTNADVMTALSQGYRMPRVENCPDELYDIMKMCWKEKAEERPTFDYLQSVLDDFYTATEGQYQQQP
T5 sequence (P06213 whole entry, stated change not applied, the tested form may be a part): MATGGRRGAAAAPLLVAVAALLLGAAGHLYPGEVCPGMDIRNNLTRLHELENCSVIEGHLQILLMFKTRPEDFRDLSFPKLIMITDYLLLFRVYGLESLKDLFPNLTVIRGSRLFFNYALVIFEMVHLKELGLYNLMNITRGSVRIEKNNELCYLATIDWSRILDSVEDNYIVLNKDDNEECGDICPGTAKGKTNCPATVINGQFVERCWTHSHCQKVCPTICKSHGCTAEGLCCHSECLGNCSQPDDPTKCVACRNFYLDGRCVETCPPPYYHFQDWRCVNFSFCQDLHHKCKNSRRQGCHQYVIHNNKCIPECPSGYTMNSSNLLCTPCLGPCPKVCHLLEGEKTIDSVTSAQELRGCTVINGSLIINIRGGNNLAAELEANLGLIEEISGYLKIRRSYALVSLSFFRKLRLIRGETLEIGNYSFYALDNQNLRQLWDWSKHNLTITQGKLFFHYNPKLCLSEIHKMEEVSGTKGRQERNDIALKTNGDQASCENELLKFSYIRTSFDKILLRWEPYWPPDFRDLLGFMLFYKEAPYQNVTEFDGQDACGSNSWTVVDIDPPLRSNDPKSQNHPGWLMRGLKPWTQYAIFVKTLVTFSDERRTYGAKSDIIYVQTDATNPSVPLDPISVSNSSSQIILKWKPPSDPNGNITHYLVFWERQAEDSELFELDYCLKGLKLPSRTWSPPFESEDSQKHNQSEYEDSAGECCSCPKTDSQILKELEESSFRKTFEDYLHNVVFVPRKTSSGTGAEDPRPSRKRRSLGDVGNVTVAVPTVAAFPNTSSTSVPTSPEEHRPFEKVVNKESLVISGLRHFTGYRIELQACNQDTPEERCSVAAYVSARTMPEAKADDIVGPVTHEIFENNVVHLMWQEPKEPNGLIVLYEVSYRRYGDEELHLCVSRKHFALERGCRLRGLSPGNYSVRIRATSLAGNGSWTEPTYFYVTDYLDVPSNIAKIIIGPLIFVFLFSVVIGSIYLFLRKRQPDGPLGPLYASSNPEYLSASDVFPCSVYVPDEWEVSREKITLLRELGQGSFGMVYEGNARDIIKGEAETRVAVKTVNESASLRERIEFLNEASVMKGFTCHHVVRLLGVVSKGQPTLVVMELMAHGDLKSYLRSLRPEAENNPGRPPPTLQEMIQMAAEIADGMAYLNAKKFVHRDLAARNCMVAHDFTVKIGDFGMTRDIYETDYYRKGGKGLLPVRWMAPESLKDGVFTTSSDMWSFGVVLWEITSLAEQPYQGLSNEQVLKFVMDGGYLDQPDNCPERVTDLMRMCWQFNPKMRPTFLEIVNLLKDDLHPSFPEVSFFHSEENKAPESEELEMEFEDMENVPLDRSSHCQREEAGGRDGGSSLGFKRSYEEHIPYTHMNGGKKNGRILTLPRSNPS

| SMILES | GI50 [1] [nM] | GI50 [2] [nM] | GI50 [3] [nM] | GI50 [4] [nM] | GI50 [5] [nM] | GI50 [6] [nM] | GI50 [7] [nM] | IC50 [8] [nM] | IC50 [9] [nM] | IC50 [10] [nM] |
| --- | --- | --- | --- | --- | --- | --- | --- | --- | --- | --- |
| CCN1CN(c2cc(NC(=O)c3cccc(C(F)(F)F)c3)ccc2C)Cc2cnc(Nc3ccc(C)nc3)nc21 [IB-1, N-(3-(1-ethyl-7-((6-methylpyridin-3-yl)amino)-1,4-dihydropyrimido[4,5-d]pyrimidin-3(2H)-yl)-4-methylphenyl)-3-(trifluoromethyl)benzamide] | 5.96 | 881 | 2640 | 327 | 3230 | 1260 | 1290 | 2110 | 1500 | 4840 |
| Cc1ccc(NC(=O)c2cccc(C(F)(F)F)c2)cc1N1Cc2cnc(Nc3ccc(N4CCOCC4)nc3)nc2N(C)C1 [IA-15, N-(4-methyl-3-(1-methyl-7-((6-morpholinopyridin-3-yl)amino)-1,4-dihydropyrimido[4,5-d]pyrimidin-3(2H)-yl)phenyl)-3-(trifluoromethyl)benzamide] | 4.18 | 132 | 1160 | 680 | 902 | 264 | 355 | 388 | 404 | 1770 |
| COc1cc(C(=O)N2CCN(C)CC2)ccc1Nc1ncc2c(n1)N(C)CN(c1cc(NC(=O)c3cccc(C(F)(F)F)c3)ccc1C)C2 [IA-16, N-(3-(7-((2-methoxy-4-(4-methylpiperazine-1-carbonyl)phenyl)amino)-1-methyl-1,4-dihydropyrimido[4,5-d]pyrimidin-3(2H)-yl)-4-methylphenyl)-3-(trifluoromethyl)benzamide] | 1710 | 4370 | 1540 | 2880 | 3960 | 2000 | 1580 | 4310 | 4410 | 4420 |
